Data as given in publication PMC12520178, “Turn-engineering tunes the conformational rigidity of β-hairpin AMPs in achieving membrane selectivity and killing drug-resistant ESKAPE pathogens” (Chemical Science, 2025).
Values after ≈ are worked out from the molar mass of the structure shown. Like-named read-outs stand apart in the source and are kept apart here. Where a SMILES comes first, the peptide text is derived from it. Bridges are numbered along the chain shown (N, C = ends). [ ]: non-standard residue; d: D form. NMeR = CN[C@@H](CCCNC(=N)N)C(=O)O; dNMeR = CN[C@H](CCCNC(=N)N)C(=O)O

Assays:
Klebsiella pneumoniae = type: cell-based
Escherichia coli = type: cell-based
Staphylococcus aureus = assay: microbe, parasite or virus in culture; type: cell-based
Acinetobacter baumannii = type: cell-based
Pseudomonas aeruginosa = type: cell-based
human red blood cells [1] = conditions: red cells of human
human red blood cells [2] = assay: Hemolysis assay against human red blood cells; conditions: ≥10% hemolysis against human RBCs; 4% (v/v) hRBCs in PBS, 1.5 h at 37 °C, 405 nm; n = 3
[3] = against E. coli, microbroth dilution, 5x10^5 cfu/mL, 20-24 h at 37 °C, turbidity 600 nm, n = 5, median

| MIC (μM) kp (Klebsiella pneumoniae) [µM] | MIC90 (Escherichia coli) [µM] | MIC (μM) ec (Escherichia coli) [µM] | MIC (μM) sa (Staphylococcus aureus) [µM] | MIC (μM) ab (Acinetobacter baumannii) [µM] | MIC (μM) pa (Pseudomonas aeruginosa) [µM] | Compound | MHC10 (μM), minimum hemolytic concentration (human red blood cells [1]) [µM] | MIC90 (Escherichia coli; [3]) [µM] | MHC10 (μM), minimum hemolytic concentration (human red blood cells [2]) [µM] |
| --- | --- | --- | --- | --- | --- | --- | --- | --- | --- |
| 1.6 (≈ 3.66 µg/mL) | 0.4 (≈ 0.915 µg/mL) | – | 3.1 (≈ 7.09 µg/mL) | 0.8 (≈ 1.83 µg/mL) | 1.6 (≈ 3.66 µg/mL) | CC[C@H](C)[C@H](NC(=O)[C@H](CCCNC(=N)N)N(C)C(=O)[C@@H](C)NC(=O)[C@H](Cc1ccc(O)cc1)NC(=O)[C@@H](NC(=O)[C@@H](NC(=O)[C@H](CCCNC(=N)N)NC(=O)[C@H](Cc1ccccc1)NC(=O)[C@@H](NC(=O)[C@H](Cc1c[nH]c2ccccc12)NC(=O)[C@@H](N)CCCCN)[C@@H](C)O)C(C)C)[C@@H](C)O)C(=O)N[C@H](C(=O)N[C@@H](Cc1ccc(O)cc1)C(=O)N[C@@H](CCCNC(=N)N)C(=O)N[C@@H](CCCNC(=N)N)C(=O)N[C@H](C(=O)N[C@@H](CCCNC(=N)N)C(N)=O)[C@@H](C)O)[C@@H](C)O [4d] (H-KWTFRVTY[dA][NMeR]ITYRRTR-NH2) | 100 | – | – |
| 6.3 (≈ 14.2 µg/mL) | 2.2 (≈ 4.97 µg/mL) | – | 12.5 (≈ 28.2 µg/mL) | 1.6 (≈ 3.62 µg/mL) | 6.3 (≈ 14.2 µg/mL) | CC[C@H](C)[C@H](NC(=O)CNC(=O)[C@H](CCCNC(=N)N)NC(=O)[C@H](Cc1ccc(O)cc1)NC(=O)[C@@H](NC(=O)[C@@H](NC(=O)[C@H](CCCNC(=N)N)NC(=O)[C@H](Cc1ccccc1)NC(=O)[C@@H](NC(=O)[C@H](Cc1c[nH]c2ccccc12)NC(=O)[C@@H](N)CCCCN)[C@@H](C)O)C(C)C)[C@@H](C)O)C(=O)N[C@H](C(=O)N[C@@H](Cc1ccc(O)cc1)C(=O)N[C@@H](CCCNC(=N)N)C(=O)N[C@@H](CCCNC(=N)N)C(=O)N[C@H](C(=O)N[C@@H](CCCNC(=N)N)C(N)=O)[C@@H](C)O)[C@@H](C)O [4c] (H-KWTFRVTYRGITYRRTR-NH2) | 100 | – | – |
| 2.4 (≈ 5.95 µg/mL) | 0.4 (≈ 0.991 µg/mL) | 0.4 (≈ 0.991 µg/mL) | 3.1 (≈ 7.68 µg/mL) | 0.8 (≈ 1.98 µg/mL) | 0.4 (≈ 0.991 µg/mL) | CC(C)[C@H](NC(=O)[C@H](CCCNC(=N)N)NC(=O)[C@H](Cc1ccccc1)NC(=O)[C@@H](NC(=O)[C@H](Cc1c[nH]c2ccccc12)NC(=O)[C@H](CCCNC(=N)N)NC(=O)[C@@H](N)CCCNC(=N)N)[C@@H](C)O)C(=O)N[C@H](C(=O)N[C@@H](Cc1ccc(O)cc1)C(=O)N[C@H](C)C(=O)N(C)[C@@H](CCCNC(=N)N)C(=O)N[C@@H](Cc1ccccc1)C(=O)N[C@H](C(=O)N[C@@H](Cc1ccc(O)cc1)C(=O)N[C@@H](CCCNC(=N)N)C(=O)N[C@@H](CCCCN)C(=O)N[C@H](C(=O)N[C@@H](CCCNC(=N)N)C(N)=O)[C@@H](C)O)[C@@H](C)O)[C@@H](C)O [3d] (H-RRWTFRVTY[dA][NMeR]FTYRKTR-NH2) | 50 | – | – |
| 3.1 (≈ 7.68 µg/mL) | 0.4 (≈ 0.991 µg/mL) | 0.4 (≈ 0.991 µg/mL) | 1.2 (≈ 2.97 µg/mL) | 1.6 (≈ 3.96 µg/mL) | 1.6 (≈ 3.96 µg/mL) | CC(C)[C@@H](NC(=O)[C@@H](CCCNC(=N)N)NC(=O)[C@@H](Cc1ccccc1)NC(=O)[C@H](NC(=O)[C@@H](Cc1c[nH]c2ccccc12)NC(=O)[C@@H](CCCNC(=N)N)NC(=O)[C@H](N)CCCNC(=N)N)[C@H](C)O)C(=O)N[C@@H](C(=O)N[C@H](Cc1ccc(O)cc1)C(=O)N[C@@H](C)C(=O)N(C)[C@H](CCCNC(=N)N)C(=O)N[C@H](Cc1ccccc1)C(=O)N[C@@H](C(=O)N[C@H](Cc1ccc(O)cc1)C(=O)N[C@H](CCCNC(=N)N)C(=O)N[C@H](CCCCN)C(=O)N[C@@H](C(=O)N[C@H](CCCNC(=N)N)C(N)=O)[C@H](C)O)[C@H](C)O)[C@H](C)O [3f] (H-[dR][dR][dW][dT][dF][dR][dV][dT][dY]A[dNMeR][dF][dT][dY][dR][dK][dT][dR]-NH2) | 100 | – | – |

The remaining lines, values behind:

| Compound | MIC (μM) kp (Klebsiella pneumoniae) [µM] | MIC90 (Escherichia coli) [µM] | MIC (μM) ec (Escherichia coli) [µM] | MIC (μM) sa (Staphylococcus aureus) [µM] | MIC (μM) ab (Acinetobacter baumannii) [µM] | MIC (μM) pa (Pseudomonas aeruginosa) [µM] | MHC10 (μM), minimum hemolytic concentration (human red blood cells [1]) [µM] | MIC90 (Escherichia coli; [3]) [µM] | MHC10 (μM), minimum hemolytic concentration (human red blood cells [2]) [µM] |
| --- | --- | --- | --- | --- | --- | --- | --- | --- | --- |
| CC(C)[C@H](NC(=O)[C@H](CCCNC(=N)N)NC(=O)[C@H](C)NC(=O)[C@H](Cc1ccc(O)cc1)NC(=O)[C@@H](NC(=O)[C@@H](NC(=O)[C@H](Cc1c[nH]c2ccccc12)NC(=O)[C@@H](N)CCCNC(=N)N)[C@@H](C)O)C(C)C)C(=O)N[C@H](C)C(=O)N(C)[C@@H](CCCNC(=N)N)C(=O)N[C@H](C(=O)N[C@@H](CCCNC(=N)N)C(=O)N[C@@H](Cc1ccc(O)cc1)C(=O)N[C@@H](CCCNC(=N)N)C(=O)N[C@@H](CCCNC(=N)N)C(=O)N[C@H](C(=O)N[C@@H](Cc1c[nH]c2ccccc12)C(=O)O)[C@@H](C)O)C(C)C [1d] (H-RWTVYARV[dA][NMeR]VRYRRTW-OH) | 0.4 (≈ 0.924 µg/mL) | 0.4 (≈ 0.924 µg/mL) | 0.4 (≈ 0.924 µg/mL) | 0.6 (≈ 1.39 µg/mL) | 1.2 (≈ 2.77 µg/mL) | 2.4 (≈ 5.54 µg/mL) | 100 | – | – |
| CC(C)[C@@H]1NC(=O)[C@H](CCCNC(=N)N)NC(=O)[C@H](Cc2ccccc2)NC(=O)[C@@H](NC(=O)[C@H](Cc2c[nH]c3ccccc23)NC(=O)[C@H](CCCNC(=N)N)NC(=O)[C@@H](N)CCCNC(=N)N)CSSC[C@@H](C(=O)N[C@@H](CCCNC(=N)N)C(N)=O)NC(=O)[C@H](CCCCN)NC(=O)[C@H](CCCNC(=N)N)NC(=O)[C@H](Cc2ccc(O)cc2)NC(=O)[C@@H]2CSSC[C@H](NC1=O)C(=O)N[C@@H](Cc1ccc(O)cc1)C(=O)N[C@H](C(C)C)C(=O)N(C)[C@@H](CCCNC(=N)N)C(=O)N[C@@H](Cc1ccccc1)C(=O)N2 [3b] (H-RRWCFRVCY[dV][NMeR]FCYRKCR-NH2; disulfide 4-17, 8-13) | – | – | – | – | – | – | – | 0.9 (≈ 2.26 µg/mL) | 6.25 |
| CC(C)[C@@H]1NC(=O)[C@H](CCCNC(=N)N)NC(=O)[C@H](Cc2ccccc2)NC(=O)[C@@H](NC(=O)[C@H](Cc2c[nH]c3ccccc23)NC(=O)[C@H](CCCNC(=N)N)NC(=O)[C@@H](N)CCCNC(=N)N)CSSC[C@@H](C(=O)N[C@@H](CCCNC(=N)N)C(N)=O)NC(=O)[C@H](CCCCN)NC(=O)[C@H](CCCNC(=N)N)NC(=O)[C@H](Cc2ccc(O)cc2)NC(=O)[C@@H]2CSSC[C@H](NC1=O)C(=O)N[C@@H](Cc1ccc(O)cc1)C(=O)N[C@H](C)C(=O)N(C)[C@@H](CCCNC(=N)N)C(=O)N[C@@H](Cc1ccccc1)C(=O)N2 [3a] (H-RRWCFRVCY[dA][NMeR]FCYRKCR-NH2; disulfide 4-17, 8-13) | – | – | – | – | – | – | – | 0.7 (≈ 1.74 µg/mL) | 12.5 |
| CC[C@H](C)[C@@H]1NC(=O)[C@H](CCCNC(=N)N)N(C)C(=O)[C@@H](C)NC(=O)[C@H](Cc2ccc(O)cc2)NC(=O)[C@@H]2CSSC[C@H](NC1=O)C(=O)N[C@@H](Cc1ccc(O)cc1)C(=O)N[C@@H](CCCNC(=N)N)C(=O)N[C@@H](CCCNC(=N)N)C(=O)N[C@H](C(=O)N[C@@H](CCCNC(=N)N)C(N)=O)CSSC[C@H](NC(=O)[C@H](Cc1c[nH]c3ccccc13)NC(=O)[C@@H](N)CCCCN)C(=O)N[C@@H](Cc1ccccc1)C(=O)N[C@@H](CCCNC(=N)N)C(=O)N[C@@H](C(C)C)C(=O)N2 [4a] (H-KWCFRVCY[dA][NMeR]ICYRRCR-NH2; disulfide 3-16, 7-12) | – | – | – | – | – | – | – | 0.3 (≈ 0.688 µg/mL) | 12.5 |
| CC(C)[C@@H](NC(=O)[C@@H](CCCNC(=N)N)N(C)C(=O)[C@H](C)NC(=O)[C@H](NC(=O)[C@@H](CCCNC(=N)N)NC(=O)[C@@H](C)NC(=O)[C@@H](Cc1ccc(O)cc1)NC(=O)[C@H](NC(=O)[C@H](NC(=O)[C@@H](Cc1c[nH]c2ccccc12)NC(=O)[C@H](N)CCCNC(=N)N)[C@H](C)O)C(C)C)C(C)C)C(=O)N[C@H](CCCNC(=N)N)C(=O)N[C@H](Cc1ccc(O)cc1)C(=O)N[C@H](CCCNC(=N)N)C(=O)N[C@H](CCCNC(=N)N)C(=O)N[C@@H](C(=O)N[C@H](Cc1c[nH]c2ccccc12)C(=O)O)[C@H](C)O [1f] (H-[dR][dW][dT][dV][dY][dA][dR][dV]A[dNMeR][dV][dR][dY][dR][dR][dT][dW]-OH) | 3.1 (≈ 7.16 µg/mL) | 0.4 (≈ 0.924 µg/mL) | 0.4 (≈ 0.924 µg/mL) | 0.8 (≈ 1.85 µg/mL) | 3.1 (≈ 7.16 µg/mL) | 3.1 (≈ 7.16 µg/mL) | 100 | – | – |
| CC(C)C[C@H](NC(=O)[C@H](CCCNC(=N)N)NC(=O)CNC(=O)CNC(=O)[C@@H](N)CCCNC(=N)N)C(=O)N[C@H](C(=O)N[C@@H](Cc1ccc(O)cc1)C(=O)N[C@H](C(=O)N[C@@H](CCCNC(=N)N)C(=O)N[C@@H](CCCNC(=N)N)C(=O)N[C@@H](CCCNC(=N)N)C(=O)N[C@@H](Cc1ccccc1)C(=O)N[C@H](C(=O)N[C@H](C(=O)N[C@H](C(=O)N[C@H](C(=O)NCC(=O)N[C@@H](CCCNC(=N)N)C(N)=O)C(C)C)[C@@H](C)O)C(C)C)[C@@H](C)O)[C@@H](C)O)[C@@H](C)O [2c] (H-RGGRLTYTRRRFTVTVGR-NH2) | 3.1 (≈ 6.67 µg/mL) | 1 (≈ 2.15 µg/mL) | – | 6.3 (≈ 13.6 µg/mL) | 3.1 (≈ 6.67 µg/mL) | 3.1 (≈ 6.67 µg/mL) | >200 | – | – |
| CC(C)C[C@@H](NC(=O)[C@@H](CCCNC(=N)N)NC(=O)CNC(=O)CNC(=O)[C@H](N)CCCNC(=N)N)C(=O)N[C@@H](C(=O)N[C@H](Cc1ccc(O)cc1)C(=O)N[C@@H](C(=O)N[C@H](CCCNC(=N)N)C(=O)N[C@@H](C)C(=O)N(C)[C@H](CCCNC(=N)N)C(=O)N[C@H](Cc1ccccc1)C(=O)N[C@@H](C(=O)N[C@@H](C(=O)N[C@@H](C(=O)N[C@@H](C(=O)NCC(=O)N[C@H](CCCNC(=N)N)C(N)=O)C(C)C)[C@H](C)O)C(C)C)[C@H](C)O)[C@H](C)O)[C@H](C)O [2f] (H-[dR]GG[dR][dL][dT][dY][dT][dR]A[dNMeR][dF][dT][dV][dT][dV]G[dR]-NH2) | 3.1 (≈ 6.45 µg/mL) | 0.4 (≈ 0.832 µg/mL) | 0.4 (≈ 0.832 µg/mL) | 2.3 (≈ 4.79 µg/mL) | 2.3 (≈ 4.79 µg/mL) | 1.6 (≈ 3.33 µg/mL) | >200 | – | – |
